Data from patent publication US5493007A, “Platelet aggregation inhibitors having high specificity for GPIIBIIIA” (Genentech, Inc., priority 1994, dated 1996).
Where a SMILES comes first, the peptide text is derived from it. Bridges are numbered along the chain shown (N, C = ends). [ ]: non-standard residue; d: D form. Pen = CC(C)(S)[C@H](N)C(=O)O

How the values were obtained:
[1] = tested on: platelet rich plasma (PRP); assay: Rabbit ex-vivo platelet aggregation (XPA), ADP-induced; assay type: in vivo; conditions: Example 1
Description: Catheters are flushed and locked after every sample.
[…] of PRP is placed in a disposable glass cuvette with a stir bar. The cuvette is placed in the temperature regulated light path of a light transmittance aggregometer (Chrono-log) and equilibrated to a 37° C. Baseline transmittance is recorded for 30 seconds, after which […] of ADP (1 mM) is added and the change in transmittance recorded. The maximum change from baseline (dT) is noted for each sample. The extent of inhibition of XPA that is produced by an inhibitor is calculated for each animal as follows: Mean dTs are calculated for the pre and post infusion values, and then, percent inhibition is calculated as (1-dt (post)/ddt (pre))×100.

[2] = tested on: New Zealand White rabbits; assay: Rabbit cutaneous bleeding time (CBT); conditions: for Rabbit BT Ratio: Example 1, at the % P.A. inhibition given
Description: Unanesthetized male New Zealand White rabbits (2.5-3.5 kg) are placed in a standard rabbit restrainer. Ears are shaved and a 20 G Teflon catheter with flowswitch (Viggo) is placed in the medial artery, flushed with saline and locked with 1 ml of heparinized saline (10 m/ml). A 22 G catheter (Abbott) fitted with an injection cap (Medex) is placed in the marginal vein of the same ear. Saline or a GP IIb IIIa receptor antagonist, at a concentration of 1 to 3 mg/ml, is infused via the venous catheter. At time 0, 41% of the dose is given as a bolus over 2 minutes. The remainder is continuously infused over the following 60 minutes. Blood samples (3.2 ml) are collected into syringes without needles via the arterial catheter at -10, -5, 10, 45, and 60 minutes. The first 0.5 ml is discarded and the following 2.7 ml is collected directly into a syringe containing 0.3 ml of 3.8% sodium citrate. The sample is divided into 1.5 ml aliquots and centrifuged at room temperature for 5 seconds at 12,000 G. The resulting platelet rich plasma (PRP) is used to measure ex-vivo platelet aggregation (XPA). At -10 and 60 minutes an additional 1 cml sample is drawn for an automated blood count (Baker instruments). Catheters are flushed and locked after every sample.
CBT is measured at -10, -5, 10, and 45 minutes on the opposite ear, using an automated incision-making instrument (Surgicutt®, ITD). An incision (5mm×1 mm deep) is made on the dorsal surface of the ear at sites not supplied by major blood vessels. Blood is blotted away with absorbent paper placed near the incision site, every 2 to 15 seconds, to a maximum of 15 minutes. Cessation of bleeding is defined as no blood forming at the incision site for 15 seconds. The range of duplicate CBT in 40 normal rabbits was 0.88 to 3.38 minutes.

vitronectin receptor = vitronectin receptor (Homo sapiens, UniProt P05106+P06756); conditions: cited from earlier work
Fibronectin Receptor [3] = molecular target: T1, Fibronectin Receptor (Homo sapiens, UniProt P05556+P08648); conditions: Pierschbacher et al. 1987; cited from earlier work
[4] = molecular target: T2, Vitronectin Receptor (αvβ3) (Homo sapiens, UniProt P05106+P06756); assay: Human Vitronectin-Vitronectin Receptor (αvβ3) ELISA Assay; assay type: binding; conditions: purified human αvβ3, vitronectin-coated plates; read-out: ELISA IC50 Vitronectin VnR
T2 construct: Human vitronection receptor (VnR) is purified from human placenta; from tissue; host or cells: human placenta
Description: Human vitronectin (Vn) is isolated from human plasma and purified by affinity chromatography by the method of Yatohgo et. al., (Cell Structure and Function 13:281-292 [1988]).
Human vitronection receptor (VnR) is purified from human placenta by the method of Pytela et al., (Methods Enzymol., 144:475 [1987]). Alternatively the αvβ3 receptor can be purified from some cell lines (e.g., human embryonic kidney 293 cells) transfected with DNA sequences for both the αv and β3 subunits. The subunits are purified by employing octylglucoside extraction followed by Con-A, Heparin-Sepharose, and S-300 Chromatography.
Anti-GP IIb IIIa monoclonal antibodies specific for human GP IIIa are prepared by the method of Newman et al. (Blood, 65:227-232 [1985]), or a similar procedure. This mouse Mab is specific for the β3 subunit of the vitronectin receptor.
Rabbit Fab 2 anti-mouse Fc fragment horse radish peroxidase conjugate (anti-MuFc HRP) is obtained from PelFreeze (cat. no. 715305-1).
Maxisorp microtiter plates are coated with 2 μg/ml human vitronectin dissolved in PBS ([…]) and stored overnight at 4° C. The plates are washed two times with PBS-0.05% Tween-20 (wash buffer) and blocked by incubating with about 150 μl/well of assay buffer (1%, BSA [RIA grade or better] in 50 mM Tris-HCl, 100 mM NaCl, 1 mM MgCl2, CaCl2, MnCl2 pH 7.4) for 60 minutes. Dilutions of standards are prepared and putative inhibitors (Table 3) are dissolved in assay buffer. The blocked plates are emptied and 25 μl/well of inhibitor or standard solution is added to each well. Twenty-five μl of a 30 μg/ml solution of purified αvβ3 in assay buffer is pipetted into the coated plate. The final concentration of receptor in the assay well is about 15 μg/ml. The plate is incubated on a shaker for 60 minutes. Meanwhile, for each microtite plate, 6 ml buffer solution containing 1.5 μg/ml of mouse monoclonal antibody specific for β3 is prepared. To this solution is added μl of the secondary antibody, which is anti-mouse-Fc-HRP antibody conjugate. For example, for one plate, prepare 6 ml of a 1.5 μg/ml mouse Mab solution to which is added 1 μl of anti-mouse-Fc-HRP antibody stock, (this represents a 1:6000 dilution of the antibody - HRP conjugate). This mixture is allowed to incubate during the receptor-inhibitor incubation. The assay plates are washed 4 times with PBS-Tween and 50 μl/well of the antibody mixture is then pipetted into the plate for a 60 minute incubation. The plate is washed 4 times and the color reaction is developed with 50 μl/well of 0.67 mg/ml o-phenyldiamine in PBS containing 0.012% H2 O2. Alternatively, 16 mM citric acid, 50 mM Na2 PO4 at pH 5.0 can be used as a substrate buffer. The reaction is stopped with 50 μl/well 1M H2 SO4. The plates are read at 492-405 nm and the data analyzed by four-parameter fit.

[5] = molecular target: human platelet rich plasma (PRP) (Homo sapiens, UniProt P05106+P08514); assay: In Vitro Human Platelet Aggregation Assay; assay type: cell-based; conditions: human PRP; read-out: Human Platelet Aggregation IC50
Description: Platelet aggregation assays are performed in human platelet rich plasma (PRP). Fifty milliliters of whole human blood (9 parts) is drawn on 3.6% sodium citrate (1 part) from a donor who has not taken aspirin or related medications for at least two weeks. The blood is centrifuged at 160×g for 10 minutes at 22° C. and allowed to stand for 5 minutes after which the PRP is decanted. Platelet poor plasma (PPP) is isolated from the remaining blood after centrifugation at 2000×g for 25 minutes. The platelet count of the PRP is diluted to about 300,000 platelets per microliter with PPP.
A 225 μl aliquot of PRP plus 25 μl of either a dilution of the test inhibitor sample or a control (PBS) is incubated for 5 minutes in a Chrono-log Whole Blood Aggregometer at 25° C. An aggregating agent (collagen, 1 μg/ml; U46619, 100 ng/ml; or ADP, 17 μM) is added and the transmission is recorded.

GP IIb IIIa [6] = molecular target: T3, GP IIb IIIa (Homo sapiens, UniProt P05106+P08514); assay: GP IIb IIIa -von Willebrand factor (vWF) ELISA Assay; assay type: binding; set-up: GP IIb IIIa, prepared by the method of Fitzgerald et al; from tissue; conditions: GP IIb IIIa-coated plates, vWF; read-out: ELISA IC50 GPIIb IIIa vWF
Description: Microtiter plates are coated with 1.0 μg/ml GP IIb IIIa, prepared by the method of Fitzgerald et al., (Anal. Biochem. 151:169-177 [1985]) and allowed to incubate overnight in coat buffer. The plates are then washed three times in wash buffer (0.05% Tween 20 in PBS) and 150 μl of assay buffer is added and allowed to incubate for 1-2 hours at room temperature on plate shaker. The plates are washed three times and 50 μl of 2x inhibitor in assay buffer (Assay buffer: 0.5% BSA/50 mM Tris, 100 mM NaCl, 1.0 mM CaCl2, 1.0mM MgCl2, 1.0 mM MnCl2; coat buffer is the same but without BSA) is added. Fifty μl of 4.0 μg/ml vWF (prepared as described by Ledford et al., Thrombosis and Haemostasis, 64(4): 569-575 [1990]) in assay buffer is then added and allowed to incubate for one hour at room temperature on plate-shaker. The plates are washed three times and the antibody mixture is added (1:5000 of mouse anti-vWF and 1:5000 of rabbit-anti-mouse-Fc-HRP, both commercially available) in assay buffer and incubated for 1 hour at room temperature on plate-shaker. Plates are again washed three times and 100 μl of substrate solution (10 mg OPD, 6.5 μl H2 O2, 15 ml phosphate citrate buffer) is added and incubated at room temperature. The color change of OPD/H2 O2 reagent is read at 492 nm with a 405 nm reference wavelength on the filter photometer.

Fibronectin Receptor [7] = molecular target: T1, Fibronectin Receptor; assay: Human Fibronectin-Fibronectin Receptor ELISA Assay; assay type: binding; set-up: octylglucoside (OG) extracted human placenta; from tissue; host or cells: human placenta; conditions: human placenta fibronectin receptor, fibronectin-coated plates; read-out: ELISA IC50 Fibronectin FnR
Description: Fibronectin receptor is purified according to the procedures of Pytela et al., (Methods Enzymol. 144:475 […]). Briefly, fibronectin receptor is purified employing an Arg-Gly-Asp affinity chromatography from (100 mM) octylglucoside (OG) extracted human placenta. The OG extract is filtered over Sepharose 6B GRGDSPK column. The column is washed three times with three column volumes of Tris-buffered saline (TBS) TBS, 1 mM CaCl2, and 25 mM OG. The receptor is eluted with TBS, 20 mM EDTA, and 25 mM Octyl thioglucoside, and is stored in 1 mM CaCl2, 1 mM MgCl2, at -80° C.
Microtiter plates are coated with 110 μl human fibronectin (at 2 μg/ml) in TBS. Plates are washed three times with TBS containing 0.05% Tween 20. Test inhibitors are then added after washing in 10 microliter aliquots. The fibronectin receptor is added in 2-fold serial dilutions with TBS containing 20 mM octyl glucoside and 2 mM MnCl2. Plates are incubated three hours at room temperature, and washed with 200 μl TBS-Tween 20 buffer. 100 μl of affinity-purffied rabbit anti-human fibronectin receptor antibody is added to the wells and the plates are incubated two hours, washed twice with TBS-Tween and once with distilled water. Affinity-purified goat anti-rabbit IgG conjugated to horseradish peroxidase (100 μl) is added to each well followed by incubation for 60 minutes at room temperature. Plates are again washed twice with TBS-Tween and distilled water. 100 μl of substrate mixture (10 mg o-phenylenediamine in 25 ml 0.1M citrate-phosphate buffer, pH 5.0 6 μ30% H2 O2) is added to the plates and allowed to develop. The development process is stopped by adding 50 μl of 4N H2 SO4 to each well and read at […].

GP IIb IIIa [8] = molecular target: T3, GP IIb IIIa; conditions: Kirchofer et al. 1990; versus αvβ3 and α5β1; cited from earlier work
[9] = tested on: New Zealand White rabbits; assay: Rabbit peripheral blood flow and CBT, laser Doppler series; assay type: in vivo; conditions: 1 mg intravenously over 2 minutes at 60 minutes, within 5 minutes, laser doppler probe
Description: In an alternative series of experiments, (Table 2 ) PBF was measured quantitatively with a laser Doppler flow probe (Perimed). The probe was positioned securely over the vascular bed of one ear and flow monitored continuously. Each inhibitor was infused and CBT measured in the opposing ear. No arterial catheter was placed for blood sampling, consequently XPA was not measured in these animals.
As a positive control, epinephrine was infused intravenously (1 mg over 2 minutes.) at 60 minutes. The resulting vasoconstriction reduced flow to near 0 flow units within 5 minutes.

T1 sequence (P08648 42-894 limits assumed): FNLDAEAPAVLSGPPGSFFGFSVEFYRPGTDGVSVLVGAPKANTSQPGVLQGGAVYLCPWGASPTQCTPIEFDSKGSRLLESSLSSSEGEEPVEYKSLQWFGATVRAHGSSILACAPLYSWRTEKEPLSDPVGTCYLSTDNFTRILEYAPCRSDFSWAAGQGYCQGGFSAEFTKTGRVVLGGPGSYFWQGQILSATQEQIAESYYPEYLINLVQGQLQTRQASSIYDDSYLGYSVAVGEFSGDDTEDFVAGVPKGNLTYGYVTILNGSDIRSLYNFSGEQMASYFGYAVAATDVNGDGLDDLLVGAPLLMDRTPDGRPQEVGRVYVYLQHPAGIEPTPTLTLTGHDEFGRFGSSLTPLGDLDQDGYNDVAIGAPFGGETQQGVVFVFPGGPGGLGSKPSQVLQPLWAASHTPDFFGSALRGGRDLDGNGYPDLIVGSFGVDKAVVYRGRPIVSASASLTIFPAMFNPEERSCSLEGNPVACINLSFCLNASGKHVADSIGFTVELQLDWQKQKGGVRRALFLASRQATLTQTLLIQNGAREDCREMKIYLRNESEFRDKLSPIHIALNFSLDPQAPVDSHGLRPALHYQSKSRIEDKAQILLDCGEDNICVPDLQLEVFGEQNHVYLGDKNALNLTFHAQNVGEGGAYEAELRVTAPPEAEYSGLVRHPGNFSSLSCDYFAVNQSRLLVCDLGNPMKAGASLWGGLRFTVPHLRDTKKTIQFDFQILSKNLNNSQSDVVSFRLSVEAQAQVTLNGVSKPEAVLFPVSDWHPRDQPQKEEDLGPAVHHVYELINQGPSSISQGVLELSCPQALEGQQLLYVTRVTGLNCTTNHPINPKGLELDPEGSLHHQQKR
T1 sequence (P08648 895-1049 partner limits assumed): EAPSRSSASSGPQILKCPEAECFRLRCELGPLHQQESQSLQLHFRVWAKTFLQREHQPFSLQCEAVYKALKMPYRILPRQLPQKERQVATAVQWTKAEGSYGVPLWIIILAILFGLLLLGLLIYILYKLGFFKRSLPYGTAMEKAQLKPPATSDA
T1 sequence (P05556 21-798): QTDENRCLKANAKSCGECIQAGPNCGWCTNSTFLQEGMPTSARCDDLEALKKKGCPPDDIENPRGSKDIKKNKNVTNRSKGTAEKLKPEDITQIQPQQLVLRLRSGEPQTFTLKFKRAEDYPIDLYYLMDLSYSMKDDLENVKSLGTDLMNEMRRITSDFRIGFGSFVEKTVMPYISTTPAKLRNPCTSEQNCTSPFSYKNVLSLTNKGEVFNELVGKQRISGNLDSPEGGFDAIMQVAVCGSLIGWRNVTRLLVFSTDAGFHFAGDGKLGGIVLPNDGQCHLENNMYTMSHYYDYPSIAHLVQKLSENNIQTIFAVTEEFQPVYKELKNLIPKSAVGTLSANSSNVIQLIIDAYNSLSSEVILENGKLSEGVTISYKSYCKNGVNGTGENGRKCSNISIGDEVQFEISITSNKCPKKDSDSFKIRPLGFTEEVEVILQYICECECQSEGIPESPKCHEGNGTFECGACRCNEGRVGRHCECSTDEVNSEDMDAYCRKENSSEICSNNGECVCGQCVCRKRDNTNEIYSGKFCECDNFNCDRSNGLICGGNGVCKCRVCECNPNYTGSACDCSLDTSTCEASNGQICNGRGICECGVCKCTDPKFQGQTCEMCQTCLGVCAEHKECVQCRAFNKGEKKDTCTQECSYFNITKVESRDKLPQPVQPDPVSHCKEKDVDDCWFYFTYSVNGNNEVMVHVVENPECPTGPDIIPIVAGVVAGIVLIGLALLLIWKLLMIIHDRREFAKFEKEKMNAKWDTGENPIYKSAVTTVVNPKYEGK
Sequence of vitronectin receptor (P06756 31-889 limits assumed): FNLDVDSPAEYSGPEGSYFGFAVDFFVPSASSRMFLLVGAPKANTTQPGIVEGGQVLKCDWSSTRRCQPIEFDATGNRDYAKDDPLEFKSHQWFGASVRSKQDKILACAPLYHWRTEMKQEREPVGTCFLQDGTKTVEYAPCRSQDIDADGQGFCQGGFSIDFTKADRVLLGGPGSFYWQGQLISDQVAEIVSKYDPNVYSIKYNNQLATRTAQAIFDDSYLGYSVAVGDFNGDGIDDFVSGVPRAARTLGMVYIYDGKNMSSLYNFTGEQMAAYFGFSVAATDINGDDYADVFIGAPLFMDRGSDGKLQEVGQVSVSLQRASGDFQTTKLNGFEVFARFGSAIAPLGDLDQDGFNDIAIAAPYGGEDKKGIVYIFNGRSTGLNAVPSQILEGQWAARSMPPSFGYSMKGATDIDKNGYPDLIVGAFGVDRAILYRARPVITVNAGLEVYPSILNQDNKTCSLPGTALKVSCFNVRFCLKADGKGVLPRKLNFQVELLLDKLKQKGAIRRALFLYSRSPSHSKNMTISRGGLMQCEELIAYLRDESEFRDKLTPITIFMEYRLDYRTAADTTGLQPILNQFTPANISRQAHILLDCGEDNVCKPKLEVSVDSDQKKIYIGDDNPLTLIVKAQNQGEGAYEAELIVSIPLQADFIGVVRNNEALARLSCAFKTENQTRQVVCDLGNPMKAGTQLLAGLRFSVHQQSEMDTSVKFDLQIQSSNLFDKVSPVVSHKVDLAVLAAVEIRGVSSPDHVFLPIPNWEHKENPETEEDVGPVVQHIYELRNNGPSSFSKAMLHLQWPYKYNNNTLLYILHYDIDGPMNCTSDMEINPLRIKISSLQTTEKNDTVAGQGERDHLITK
Sequence of vitronectin receptor (P06756 891-1048 partner limits assumed): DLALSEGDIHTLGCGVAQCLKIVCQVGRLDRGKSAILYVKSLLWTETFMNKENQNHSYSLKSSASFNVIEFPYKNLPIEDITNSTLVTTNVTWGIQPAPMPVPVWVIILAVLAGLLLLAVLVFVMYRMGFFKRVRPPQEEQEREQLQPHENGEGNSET
Sequence of vitronectin receptor (P05106 27-788): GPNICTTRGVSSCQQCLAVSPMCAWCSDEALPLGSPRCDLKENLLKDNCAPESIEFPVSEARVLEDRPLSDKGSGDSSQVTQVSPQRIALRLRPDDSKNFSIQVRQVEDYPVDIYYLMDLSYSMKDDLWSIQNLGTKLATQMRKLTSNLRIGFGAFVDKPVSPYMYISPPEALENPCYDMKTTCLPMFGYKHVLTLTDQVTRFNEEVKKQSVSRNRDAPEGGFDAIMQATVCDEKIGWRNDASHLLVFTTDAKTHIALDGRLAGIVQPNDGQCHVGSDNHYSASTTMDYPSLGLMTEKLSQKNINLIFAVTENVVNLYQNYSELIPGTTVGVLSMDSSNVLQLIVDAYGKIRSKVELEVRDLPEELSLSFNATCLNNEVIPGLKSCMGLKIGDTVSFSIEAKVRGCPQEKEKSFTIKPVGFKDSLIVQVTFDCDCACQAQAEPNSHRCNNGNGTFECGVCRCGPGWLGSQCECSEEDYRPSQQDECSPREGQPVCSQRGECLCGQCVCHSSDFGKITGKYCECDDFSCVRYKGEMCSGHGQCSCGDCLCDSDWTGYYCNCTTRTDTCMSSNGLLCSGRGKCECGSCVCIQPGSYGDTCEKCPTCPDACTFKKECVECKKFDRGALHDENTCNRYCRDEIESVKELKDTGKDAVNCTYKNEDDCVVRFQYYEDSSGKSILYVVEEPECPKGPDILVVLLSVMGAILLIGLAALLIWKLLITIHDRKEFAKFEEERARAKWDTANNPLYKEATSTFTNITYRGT
T2 sequence (P06756 31-889 limits assumed): as the sequence (P06756 31-889 limits assumed) above
T2 sequence (P06756 891-1048 partner limits assumed): as the sequence (P06756 891-1048 partner limits assumed) above
T2 sequence (P05106 27-788): as the sequence (P05106 27-788) above

Compound: N=C(N)NCCC[C@@H]1NC(=O)[C@@H](Cc2ccc(O)cc2)NC(=O)C[S+]([O-])C[C@@H](C(=O)N[C@H](CCCNC(=N)N)C(N)=O)NC(=O)[C@H](CC(=O)O)NC(=O)CNC1=O (single isomer, unassigned) [7/34]
- Rabbit % P.A. Inhibition (ex vivo) [1]: 64%
- Rabbit BT Ratio ([2]; rabbit): 0.94

Compound: N=C(N)NCCC[C@H](NC(=O)[C@@H]1C[S+]([O-])CC(=O)N[C@H](Cc2ccc(O)cc2)C(=O)N[C@@H](CCCNC(=N)N)C(=O)NCC(=O)N[C@@H](CC(=O)O)C(=O)N1)C(N)=O (single isomer, unassigned) [7/32]
- Rabbit % P.A. Inhibition (ex vivo) [1]: 99%
- Rabbit BT Ratio ([2]; rabbit): 1.17

Compound: Gly-Pen-Gly-Arg-Gly-Asp-Ser-Pro-Cys-Ala
- effectiveness at inhibiting the vitronectin-vitronectin receptor interaction, cyclized versus uncyclized peptide (vitronectin receptor; Pierschbacher et al. 1987): 10 times
- inhibition of the fibronectin-fibronectin receptor interaction, in words (Fibronectin Receptor [3]): ineffective

Compound: NCCCC[C@@H]1NC(=O)[C@@H](Cc2ccc(O)cc2)NC(=O)C(c2ccccc2)SC[C@@H](C(=O)O)NC(=O)[C@H](CC(=O)O)NC(=O)CNC1=O (single isomer, unassigned) [7/45, cyclo-S-phenylacetyl-dTyr--Lys--Gly--Asp--Cys--OH]
- IC50 [4]: > 20 µM
- IC50 [5]: 220 nM
- Rabbit BT Ratio ([2]; rabbit): 4.47
- IC50 (GP IIb IIIa [6]): 1 nM
- IC50 (Fibronectin Receptor [7]): > 10 µM

Compound: cyclic-2,10-GPenGHRGDLRCA
- integrin selectivity, in words (GP IIb IIIa [8]): preferentially inhibits the binding of GP IIb IIIa to fibrinogen

Compound: CC1(C)SCC(=O)N[C@H](Cc2ccc(O)cc2)C(=O)N[C@@H](CCCCN)C(=O)NCC(=O)N[C@@H](CC(=O)O)C(=O)N[C@@H]1C(=O)O [7/47] ({CH2CO}-[dY]KGD[Pen]-OH; thioether N-5)
- Rabbit % P.A. Inhibition (ex vivo) [1]: 96%
- cutaneous bleeding time, result in words [2]: prolongation of bleeding time in vivo in both the rabbit and dog model
- Rabbit BT Ratio ([2]; rabbit): 8.57
- increase of cutaneous bleeding time compared to the undosed animal ([2]; rabbit, dose sufficient to achieve about 97% inhibition of platelet aggregation): 8.6 times

Compound: N=C(N)NCCC[C@@H]1NC(=O)[C@@H](Cc2ccc(O)c(Br)c2)NC(=O)C[S+]([O-])C[C@@H](C(=O)N[C@@H](CCCCN)C(N)=O)NC(=O)[C@H](CC(=O)O)NC(=O)CNC1=O (single isomer, unassigned) [7/36]
- Rabbit % P.A. Inhibition (ex vivo) [1]: 91%
- Rabbit BT Ratio ([2]; rabbit): 0.77

Compound: CNC[C@H](O)c1ccc(O)c(O)c1 [epinephrine]
- peripheral blood flow after positive control [9]: ~0 flow units

Compound: cyclic-1,7-VRGDSPDG
- integrin selectivity, in words (vitronectin receptor; Kirchofer et al. 1990): preferentially inhibited αvβ3 (vitronectin receptor) binding to vitronectin
